The nature of one data set: in vivo. As to conditions: for mortality: read-out: Toxicity (Mortality); for LD50: read-out: Toxicity: LD50. The source says: *LD50 or percentage of mortality which is given between brackets
The next data set concerns anaesthetized dog. The experiment in a line: Antiangorous activity on anaesthetized dog: consumption of oxygen in the left ventricule and cardiac effort (KATZ's index). The data set is classed as in vivo. As to conditions: for inhibition in vivo at 0.54 mg/kg / inhibition in vivo at […] / inhibition in vivo at 2.3 mg/kg / inhibition in vivo at 2.5 mg/kg / inhibition in vivo at 0.625 mg/kg / inhibition in vivo at 2.1 mg/kg: Canis lupus familiaris, iv. In short, it runs like this:
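Dogs anaesthetized with sodium pentobarbital 30 mg/kg i.v.; compounds given by slow i.v. perfusion. Left ventricular O2 consumption = coronary venous flow (Morawitz cannula in coronary sinus) × arteriovenous O2 difference; cardiac effort (Katz index) = mean arterial pressure × heart rate from D2 ECG.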

The mark [1] stands for this setting: 0.15 mg/kg i.v. slow perfusion, read-out: Diminution in consumption of O2.
[2] abbreviates: 0.15 mg/kg i.v. slow perfusion, read-out: Diminution in the cardiac effort (IK).
Where [3] appears, read: 2.5 mg/kg i.v. slow perfusion, read-out: Diminution in consumption of O2.
Setting [4] is: 2.5 mg/kg i.v. slow perfusion, read-out: Diminution in the cardiac effort (IK).
Setting [5] is: 0.625 mg/kg i.v. slow perfusion.
Where [6] appears, read: 0.625 mg/kg i.v. slow perfusion, read-out: Diminution in consumption of O2.
[7] abbreviates: 0.625 mg/kg i.v. slow perfusion, read-out: Diminution in the cardiac effort (IK).

Structures are written as SMILES. Where a name gives a salt, the structure may show the parent alone. Read-outs that look alike come from different tables or passages of the source.

Regarding `CNC(=O)c1ccc(OCC(O)CN2CCN(C(=O)/C=C/c3cc(OC)c(OC)c(OC)c3)CC2)c2c1OCCO2` (centres unmarked) [760 710], the mortality in the data set “in vivo” (iv, 345 mg/kg i.v.) is 70%. Further, in the data set on anaesthetized dog (0.54 mg/kg i.v. slow perfusion), the “Diminution in consumption of O2: in time” value was 60 min and the “Diminution in the cardiac effort (IK): in time” value (shortened to “Diminution in the cardiac effort”) was 30 min. In addition, the inhibition in vivo at 0.54 mg/kg in the data set on anaesthetized dog (0.54 mg/kg i.v. slow perfusion, read-out: Diminution in consumption of O2) is 64%. For the same molecule, the inhibition in vivo at 0.54 mg/kg in the data set with anaesthetized dog (0.54 mg/kg i.v. slow perfusion, read-out: Diminution in the cardiac effort (IK)) was found to be 36%.

For `COc1cc(/C=C/C(=O)N2CCN(CC(O)COc3ccc(NC(=O)N(C)C)c4c3OCCO4)CC2)cc(OC)c1OC` (centres unmarked) [771 233], in the data set “in vivo” (iv), the LD50 was 310 mg/kg. The inhibition in vivo at […] with anaesthetized dog (setting [1]) worked out at 29%; in the data set with anaesthetized dog (setting [2]), 9%.

Regarding `COc1cc(/C=C/C(=O)N2CCN(CC(O)COc3ccc(NC(=O)Nc4ccccc4)c4c3OCCO4)CC2)cc(OC)c1OC` (centres unmarked) [770 085], the mortality in the data set “in vivo” (po, p.o.: 1855 mg/kg) stood at 0%. The inhibition in vivo at […] in the data set on anaesthetized dog (setting [1]) was 44%; with anaesthetized dog (setting [2]), 14%.

Consider `COc1cc(/C=C/C(=O)N2CCN(CC(O)COc3ccccc3Cl)CC2)cc(OC)c1OC` (centres unmarked) [760 520], for which the LD50 in the data set “in vivo” (iv) amounted to 157 mg/kg. In addition, in the data set with anaesthetized dog (2.3 mg/kg i.v. slow perfusion), the “Diminution in consumption of O2: in time” value is 40 min and the “Diminution in the cardiac effort” value stood at 30 min. In the data set on anaesthetized dog (2.3 mg/kg i.v. slow perfusion, read-out: Diminution in consumption of O2), the inhibition in vivo at 2.3 mg/kg stood at 45%. The inhibition in vivo at 2.3 mg/kg in the data set on anaesthetized dog (2.3 mg/kg i.v. slow perfusion, read-out: Diminution in the cardiac effort (IK)) was determined as 13%.

For the molecule `COc1cc(/C=C/C(=O)N2CCN(CC(O)COc3ccc(C(C)=O)c4c3OCCO4)CC2)cc(OC)c1O` (centres unmarked) [770 274, 1-[3-(4-acetyl-2,3-ethylenedioxy)phenoxy-2-hydroxy]propyl-4-(3,5-dimethoxy-4-hydroxycinnamoyl)piperazine oxalate], the mortality in the data set “in vivo” (iv, 336 mg/kg i.v.) is 30%. In addition, in the data set on anaesthetized dog (2.5 mg/kg i.v. slow perfusion), the “Diminution in consumption of O2: in time” value was 30 min and the “Diminution in the cardiac effort” value was 15 min. In the data set on anaesthetized dog (setting [3]), the inhibition in vivo at 2.5 mg/kg was 41%. In addition, the inhibition in vivo at 2.5 mg/kg in the data set on anaesthetized dog (setting [4]) amounted to 10%.

Consider `COc1cc(/C=C/C(=O)N2CCN(CC(O)COc3ccc(NC(=O)NC(C)C)c4c3OCCO4)CC2)cc(OC)c1OC` (centres unmarked) [770 630], for which the mortality in the data set “in vivo” (iv, 400 mg/kg i.v.) is 40%. Moreover, the inhibition in vivo at […] with anaesthetized dog (setting [1]) stood at 58%; in the data set with anaesthetized dog (setting [2]), 32%.

With `CCOc1c(OC)cc(/C=C/C(=O)N2CCN(CC(O)COc3ccc(C(C)=O)c4c3OCCO4)CC2)cc1OC` (centres unmarked) [770 504], in the data set “in vivo” (iv), the LD50 came to 145 mg/kg. The “Diminution in consumption of O2: in time” value in the data set with anaesthetized dog (2.5 mg/kg i.v. slow perfusion) is given as 15 min. Moreover, the inhibition in vivo at 2.5 mg/kg turned out to be 52% with anaesthetized dog (setting [3]) and 10% in the data set with anaesthetized dog (setting [4]).

For the molecule `COc1cc(/C=C/C(=O)N2CCN(CC(O)COc3ccc(NC(=O)C(C)(C)C)c4c3OCCO4)CC2)cc(OC)c1OC` (centres unmarked) [770 614], the mortality in the data set “in vivo” (po, p.o.: 2000 mg/kg) was found to be 11%. Also, the “Diminution in consumption of O2: in time” value in the data set with anaesthetized dog (setting [5]) is 30 min. The “Diminution in the cardiac effort” value with anaesthetized dog (setting [5]) is recorded as 30 min. Besides, the inhibition in vivo at 0.625 mg/kg was found to be 49% in the data set with anaesthetized dog (setting [6]) and 45% with anaesthetized dog (setting [7]).

Consider `COc1cc(/C=C/C(=O)N2CCN(CC(O)COc3ccc(C(C)(C)C)cc3)CC2)cc(OC)c1OC` (centres unmarked) [770 859], for which the LD50 in the data set “in vivo” (iv) worked out at 150 mg/kg. Further, the “Diminution in consumption of O2: in time” value with anaesthetized dog (2.5 mg/kg i.v. slow perfusion) was determined as 30 min. For the same molecule, the “Diminution in the cardiac effort” value in the data set on anaesthetized dog (2.5 mg/kg i.v. slow perfusion) worked out at 60 min. The inhibition in vivo at 2.5 mg/kg with anaesthetized dog (setting [3]) turned out to be 30%; in the data set with anaesthetized dog (setting [4]) it was 52%.

Consider `CNC(=O)Nc1ccc(OCC(O)CN2CCN(C(=O)/C=C/c3cc(OC)c(OC)c(OC)c3)CC2)cc1` (centres unmarked) [770 056], for which the LD50 in “in vivo” (iv) was determined as 160 mg/kg. For the same molecule, in the data set on anaesthetized dog (setting [5]), the “Diminution in consumption of O2: in time” value is listed as 15 min and the “Diminution in the cardiac effort” value is 15 min. Also, the inhibition in vivo at 0.625 mg/kg with anaesthetized dog (setting [6]) is 49%. Further, the inhibition in vivo at 0.625 mg/kg in the data set on anaesthetized dog (setting [7]) was 22%.

As to `CNC(=O)Cc1ccc(OCC(O)CN2CCN(C(=O)/C=C/c3cc(OC)c(OC)c(OC)c3)CC2)c2c1OCCO2` (centres unmarked) [770 382], in “in vivo” (iv, 400 mg/kg i.v.), the mortality was found to be 30%. In addition, the “Diminution in consumption of O2: in time” value with anaesthetized dog (setting [5]) is listed as 15 min. The “Diminution in the cardiac effort” value in the data set on anaesthetized dog (setting [5]) is recorded as 15 min. In addition, the inhibition in vivo at 0.625 mg/kg amounted to 36% with anaesthetized dog (setting [6]) and 16% in the data set with anaesthetized dog (setting [7]).

With `CCCNC(=O)Nc1ccc(OCC(O)CN2CCN(C(=O)/C=C/c3cc(OC)c(OC)c(OC)c3)CC2)c2c1OCCO2` (centres unmarked) [770 483], the mortality in “in vivo” (po, p.o.: 2000 mg/kg) was found to be 0%. Further, the inhibition in vivo at […] in the data set with anaesthetized dog (setting [1]) stood at 74%; with anaesthetized dog (setting [2]) it was 16%.

Turning to `COc1cc(/C=C/C(=O)N2CCN(CC(O)COc3ccc(C(C)=O)c4c3OCCO4)CC2)cc(OC)c1OC` (centres unmarked) [760 394], the LD50 in the data set “in vivo” (iv) stood at 214 mg/kg. In addition, in the data set on anaesthetized dog (2.1 mg/kg i.v. slow perfusion), the “Diminution in consumption of O2: in time” value was determined as 60 min. The “Diminution in the cardiac effort” value in the data set with anaesthetized dog (2.1 mg/kg i.v. slow perfusion) is reported as 45 min. Also, the inhibition in vivo at 2.1 mg/kg was found to be 60% in the data set on anaesthetized dog (2.1 mg/kg i.v. slow perfusion, read-out: Diminution in consumption of O2) and 46% with anaesthetized dog (2.1 mg/kg i.v. slow perfusion, read-out: Diminution in the cardiac effort (IK)).

Turning to `CCC(=O)Nc1ccc(OCC(O)CN2CCN(C(=O)/C=C/c3cc(OC)c(OC)c(OC)c3)CC2)c2c1OCCO2` (centres unmarked) [770 545], the mortality in the data set “in vivo” (iv, 400 mg/kg i.v.) is 40%. For the same molecule, the “Diminution in consumption of O2: in time” value with anaesthetized dog (setting [5]) came to 30 min. Also, the “Diminution in the cardiac effort” value in the data set with anaesthetized dog (setting [5]) amounted to 15 min. Further, the inhibition in vivo at 0.625 mg/kg with anaesthetized dog (setting [6]) came out at 61%; in the data set with anaesthetized dog (setting [7]), 16%.

On to `Cc1cccc(C)c1NC(=O)CN1CCN(CCCC(c2ccc(F)cc2)c2ccc(F)cc2)CC1` [LIDOFLAZINE, reference compound], for which the mortality in “in vivo” (iv, 25 mg/kg i.v.) came out at 50%. Moreover, the inhibition in vivo at […] was determined as 48% with anaesthetized dog (1.5 mg/kg i.v. slow perfusion, read-out: Diminution in consumption of O2) and 40% with anaesthetized dog (1.5 mg/kg i.v. slow perfusion, read-out: Diminution in the cardiac effort (IK)).

On to `COc1cc(/C=C/C(=O)N2CCN(CC(O)COc3ccc(CC#N)cc3)CC2)cc(OC)c1OC` (centres unmarked) [770 488], for which, in “in vivo” (iv), the LD50 was found to be 225 mg/kg. Further, the “Diminution in consumption of O2: in time” value in the data set with anaesthetized dog (2.5 mg/kg i.v. slow perfusion) is listed as 30 min. Further, the “Diminution in the cardiac effort” value in the data set with anaesthetized dog (2.5 mg/kg i.v. slow perfusion) is recorded as 15 min. In addition, the inhibition in vivo at 2.5 mg/kg in the data set on anaesthetized dog (setting [3]) stood at 78%; with anaesthetized dog (setting [4]), 17%.

With `COc1cc(/C=C/C(=O)N2CCN(CC(O)COc3ccc([N+](=O)[O-])c(C)c3)CC2)cc(OC)c1OC` (centres unmarked) [770 963], in “in vivo” (iv), the LD50 came out at 190 mg/kg. In the data set with anaesthetized dog (2.5 mg/kg i.v. slow perfusion), the “Diminution in consumption of O2: in time” value came to 30 min and the “Diminution in the cardiac effort” value is given as 30 min. Moreover, the inhibition in vivo at 2.5 mg/kg with anaesthetized dog (setting [3]) was determined as 58%. Also, the inhibition in vivo at 2.5 mg/kg with anaesthetized dog (setting [4]) turned out to be 66%.

On to `COc1cc(/C=C/C(=O)N2CCN(CC(O)COCc3ccccc3)CC2)cc(OC)c1OC` (centres unmarked) [770 276], for which, in the data set “in vivo” (iv), the LD50 stood at 248 mg/kg. For the same molecule, the “Diminution in consumption of O2: in time” value in the data set with anaesthetized dog (2.5 mg/kg i.v. slow perfusion) is listed as 23 min. Besides, in the data set on anaesthetized dog (setting [3]), the inhibition in vivo at 2.5 mg/kg is 59%.

Regarding `CCCC(=O)Nc1ccc(OCC(O)CN2CCN(C(=O)/C=C/c3cc(OC)c(OC)c(OC)c3)CC2)cc1` (centres unmarked) [760 892], in the data set “in vivo” (iv, 400 mg/kg i.v.), the mortality is 40%. The “Diminution in consumption of O2: in time” value in the data set with anaesthetized dog (2.5 mg/kg i.v. slow perfusion) is on record as 60 min. Moreover, in the data set with anaesthetized dog (2.5 mg/kg i.v. slow perfusion), the “Diminution in the cardiac effort” value is on record as 45 min. The inhibition in vivo at 2.5 mg/kg turned out to be 74% in the data set with anaesthetized dog (setting [3]) and 22% with anaesthetized dog (setting [4]).

On to `COc1cc(NC(C)=O)ccc1OCC(O)CN1CCN(C(=O)/C=C/c2cc(OC)c(OC)c(OC)c2)CC1` (centres unmarked) [770 487], for which the mortality in the data set “in vivo” (iv, 400 mg/kg i.v.) was found to be 30%. Also, in the data set with anaesthetized dog (2.5 mg/kg i.v. slow perfusion), the “Diminution in consumption of O2: in time” value came to 60 min. For the same molecule, the inhibition in vivo at 2.5 mg/kg amounted to 47% in the data set with anaesthetized dog (setting [3]) and 14% in the data set on anaesthetized dog (setting [4]).
